According to patent US9464078B2, “Monohydrate of azaadamantane derivatives” (AbbVie Inc., priority 2010, dated 2016):
Structures can show the parent of a compound that is named as a salt. Where two headings read alike, the source gives them in different places.

What was measured:
Assay type in all cases: physicochemical
[1] = critical water activity for hydrate formation (PXRD of solids from methanol/water suspensions); conditions: ambient temperature
Description: The critical water activity of the monohydrate salt can be determined by mixing different ratios of organic solvents and water. The analysis of the water activity for these solvent mixtures are temperature dependent. Determination of the critical water activity typically comprises the following steps: (1) preparation of solvent mixtures with a range of water activities; (2) saturation of the organic solvent/water mixtures with the monohydrate salt; (3) the optional filtration of the saturated solution; (4) addition of a 1:1 solid mixture (e.g., 25 mg/phase) of the anhydrous and hydrated phases to the saturated organic solvent/water mixtures; (5) equilibration at the temperature of interest (3-5 days); and (6) analysis of the residual solids by the appropriate technique, as understood by one skilled in the art (e.g., PXRD) to determine the identity of the stable phases.
The inventors determined the critical water activity for (4s)-4-(5-phenyl-1,3,4-thiadiazol-2-yloxy)-1-azatricyclo[3.3.1.1^3,7]decane dihydrogen citrate monohydrate at ambient temperature. Specifically, the inventors developed suspensions of the crystalline product in mixtures of methanol and water, with water activities of 0.20, 0.15, 0.10, and 0.05, performing powder X-ray diffraction patterns for each suspension, respectively. […]

[2] = solubility in water
[3] = hygroscopicity by dynamic moisture sorption balance
Experimental: Dynamic moisture sorption balance (DMSB) was used to evaluate the hygroscopicity of the crystalline monohydrate compound. The hygroscopicity was evaluated using a dynamic moisture sorption balance (IGAsorp, Hiden Isochema) equipped with a data analyzer. The balance was calibrated using standardized weights of 20, 50, and 100 mg. The RH probe was calibrated using standardized salt solutions of lithium chloride, potassium carbonate, and sodium chloride. During the experiment, the flow rate of nitrogen gas at different relative humidity was 250 mL/min. For anhydrous materials, the sample was first dried with dry nitrogen at 50° C. for two hours. The temperature was then set to 25° C. and the relative humidity was changed from 0% to 90% and back to 0% at 10% intervals. For hydrated samples the temperature was set to 25° C. and the relative humidity was changed at 10% intervals from 30% to 90%, back to 10%, and then to 90%. For each step described herein, a one hour equilibration time period was used.

c1ccc(-c2nnc(O[C@@H]3C4CC5C[C@H]3C[N@](C5)C4)s2)cc1 [(4s)-4-(5-phenyl-1,3,4-thiadiazol-2-yloxy)-1-azatricyclo[3.3.1.1^3,7]decane dihydrogen citrate]
water activity of solvent at which the salt exists as the anhydrate [1]: ≤ 0.10 | water activity of solvent at which the salt exists as the monohydrate [1]: ≥ 0.15

c1ccc(-c2nnc(O[C@@H]3C4CC5C[C@H]3C[N@](C5)C4)s2)cc1 [dihydrogen citrate anhydrate, (4s)-4-(5-phenyl-1,3,4-thiadiazol-2-yloxy)-1-azatricyclo[3.3.1.1^3,7]decane dihydrogen citrate]
solubility [2]: 28 mg/mL | hygroscopicity (in words) [3]: non-hygroscopicity

c1ccc(-c2nnc(O[C@@H]3C4CC5C[C@H]3C[N@](C5)C4)s2)cc1 [dihydrogen citrate monohydrate, (4s)-4-(5-phenyl-1,3,4-thiadiazol-2-yloxy)-1-azatricyclo[3.3.1.1^3,7]decane dihydrogen citrate monohydrate]
hygroscopicity (in words) ([3]; citrate monohydrate): non-hygroscopic | hygroscopicity (in words) ([3]; listed as crystalline monohydrate of (4s)-4-(5-phenyl-1,3,4-thiadiazol-2-yloxy)-1-azatricy, citrate monohydrate): non-hygroscopic | weight change by dynamic moisture sorption ([3]; relative humidities from 0% to 90%, listed as crystalline monohydrate of (4s)-4-(5-phenyl-1,3,4-thiadiazol-2-yloxy)-1-azatricy, citrate monohydrate): < 0.2%
